# Results as given in patent US20210001138A1, “ELECTROSTATIC DRUG DELIVERY” (Nano Hesgarsazan Salamat Arya, priority 2019, published 2021).
# Tested on: MC4L2 mice tumor
# Assay: Sonography of MC4L2 mice tumor after injection of the free drug, with or without electrostatic field
# Settings: for trace of tumor after the second injection period: every 3 days
# Experimental: Here, three injection periods of Cisplatin were carried out every 3 days for a group of mice having a MC4L2 mice tumor as an example of triple-positive breast cancer. About 20 mg/kg of Cisplatin was applied for a Control sample with a MC4L2 mice tumor without applying an electrostatic field.
# Here, four injection periods of Doxorubicin were carried out every 3 days for a group of mice having a MC4L2 mice tumor as an example of triple-positive breast cancer. About 10 mg/kg of Doxorubicin was applied for a Control sample with a MC4L2 mice tumor without applying an electrostatic field. […] All sonography images were taken after about 10 days of treatments, and all drug injections were done every about 3 days.
Compound,"tumor outcome in sonography images (about 5 mg/kg Cisplatin followed by electrostatic field, FIG. 5B)","trace of tumor after the second injection period (about 5 mg/kg Cisplatin per period, then DC electrostatic field -60 V to -120 V via conductive patch, sample mouse No. 1)","reduction in tumor volume (about 20 mg/kg Cisplatin, without electrostatic field, FIG. 4B vs FIG. 4A)","tumor outcome in sonography images (about 1 mg/kg Doxorubicin followed by electrostatic field, sonography after about 10 days, FIG. 9B)","trace of tumor after the second injection period (about 1 mg/kg Doxorubicin per period, then DC electrostatic field 60 V to 120 V via conductive patch, sample mouse No. 2)"
N.N.[Cl][Pt][Cl] [Cisplatin],removed completely,no observable trace of tumor,about 60%,–,–
COc1cccc2c1C(=O)c1c(O)c3c(c(O)c1C2=O)C[C@@](O)(C(=O)CO)C[C@@H]3O[C@H]1C[C@H](N)[C@H](O)[C@H](C)O1 [Doxorubicin],–,–,–,removed completely,no observable trace of tumor
